For the assay, the target named is AdeV. In words: stopped-flow absorption kinetics (substrate-dependent formation of the […] nm chloro-ferryl feature), with freeze-quench Mössbauer and LC–MS turnover of purified enzyme. The format is biochemical, Actinomadura sp. ATCC 39365.

For orientation: Kd means the concentration at which binding is half-saturated. Read a high Kd as lower affinity. `Nc1ncnc2c1ncn2[C@H]1C[C@H](O)[C@@H](COP(=O)(O)O)O1` [compound 1, 2′-deoxyadenosine monophosphate] had a Kd of around 28 mM.
